Among the data in the RepoRT retention time repository (doi:10.1016/j.chroma.2019.01.023) are LC retention time values, retold here.

A short description of series [1]: HILIC, Waters ACQUITY UPLC BEH Amide, 150 × 2.1 mm, 1.7 µm, 40 °C, 0.5 mL/min, estimated dead time 0.66 min; A: 5% water + 95% acetonitrile; B: 70% water + 30% acetonitrile + 10 mM ammonium formate, pH 6.5; gradient (min/%B) 0/0 2/0 20/70 23/70 24/0 31/0. The note with it: stereoisomer not certain.
A short description of series [2]: HILIC, Merck SeQuant ZIC-pHILIC, 150 × 2.1 mm, 5 µm, 40 °C, 0.3 mL/min, estimated dead time 1.1 min; A: acetonitrile; B: water + 2.8 mM ammonium formate, pH 9; gradient (min/%B) 0/5 1/5 10/51 13/51 13.1/5 20/5. The note with it: stereoisomer not certain.

In the case of `CC12CCC(O)CC1CCC1C2C(O)CC2(C)C1CCC2(O)C(=O)CO` (configuration not stated), the LC retention time in series [1] is 0.99 min.

With `Cn1cnc(C[C@H](N)C(=O)O)c1` [1-METHYL-L-HISTIDINE], the LC retention time was 13.2 min in series [1] and 8.97 min in series [2].

`C[n+]1cccc(C(N)=O)c1` [1-METHYLNICOTINAMIDE]: the LC retention time in series [1] was 8.27 min.

For `O=CC[C@@H](O)[C@H](O)[C@H](O)CO` [2-DEOXY-D-GLUCOSE], the LC retention time in series [1] is 4.02 min; in series [2] it was 8.23 min.

With `O=c1cccc[nH]1` [2-HYDROXYPYRIDINE], the LC retention time in series [1] was 1.56 min.

For `CC(O)CC(=O)[O-]` (configuration not stated) [3-HYDROXYBUTANOATE], the LC retention time in series [1] is 1.37 min.

On to `COc1cc(CCN)ccc1O` [3-METHOXYTYRAMINE], for which, in series [1], the LC retention time was 0.84 min.

As for `CC1C(=O)Nc2ccccc21` (configuration not stated) [3-METHYL-2-OXINDOLE], the LC retention time in series [1] was 0.84 min.

Consider `Cn1cnc(=N)c2[nH]cnc21` [3-METHYLADENINE], for which the LC retention time in series [1] was 5.66 min.

For `Cn1cncc1CCN` [3-METHYLHISTAMINE], the LC retention time in series [1] is 9.57 min.

Take `O=C(O)Cc1cnc[nH]1` [4-IMIDAZOLEACETATE]: the LC retention time in series [1] was 9.86 min; in series [2], 8.13 min.

On to `NCCCCC(=O)O` [5-AMINOPENTANOATE], for which, in series [1], the LC retention time is 10.4 min.

With `Cc1cnc(=O)[nH]c1N` [5-METHYLCYTOSINE], the LC retention time in series [1] is 5.31 min; in series [2] it was 6.24 min.

For the molecule `O=C1CCCCO1` [5-VALEROLACTONE], the LC retention time in series [1] was 1.14 min.

Take `CC(=O)C(C)O` (configuration not stated) [ACETOIN]: in series [1], the LC retention time was 8.78 min.

Turning to `CC(=O)OCC[N+](C)(C)C` [ACETYLCHOLINE], the LC retention time in series [1] is 6.38 min.

Regarding `NCCCCN=C(N)N.O=S(=O)(O)O` [AGMATINE SULFATE], the LC retention time in series [1] was 14 min.

`NC(=O)NC1NC(=O)NC1=O` (configuration not stated) [ALLANTOIN]: the LC retention time in series [1] was 4.85 min; in series [2], 7.96 min.

Take `NC(CCCC(=O)O)C(=O)O` (configuration not stated) [AMINOADIPATE]: the LC retention time in series [1] was 6.89 min; in series [2], 8.78 min.

Take `Cn1cncc1CC(NC(=O)CCN)C(=O)O` (configuration not stated) [ANSERINE]: the results for the LC retention time in series [1] and in series [2] were 12.5 min and 10.1 min, respectively.

For the molecule `Nc1ccccc1C(=O)[O-]` [ANTHRANILATE], the LC retention time in series [1] was 1.11 min.

For the molecule `NC(N)=NCCCC(N)C(=O)O` (configuration not stated) [ARGININE], the LC retention time is 14.2 min in series [1] and 3.62 min in series [2].

Take `NC(=O)CC(N)C(=O)O` (configuration not stated) [ASPARAGINE]: the LC retention time in series [1] is 11.5 min; in series [2], 9.25 min.

For the molecule `NC(CC(=O)O)C(=O)O` (configuration not stated) [ASPARTATE], in series [1], the LC retention time is 1.93 min.

Take `NCc1ccccc1` [BENZYLAMINE]: the LC retention time in series [1] is 7.09 min.

`NCCC(=O)O` [BETA-ALANINE]: the LC retention time in series [1] is 10.4 min.

Take `C[N+](C)(C)CC(=O)[O-]` [BETAINE]: the LC retention time in series [1] is 7.63 min.

`CCCC(=O)[O-]` [BUTANOATE]: the LC retention time in series [1] was 1.29 min.

Regarding `NCCC(=O)NC(Cc1cnc[nH]1)C(=O)O` (configuration not stated) [CARNOSINE], the figures for the LC retention time in series [1] and in series [2] were 12.3 min and 10.5 min, respectively.

Regarding `OCC1OC(OC2C(CO)OC(O)C(O)C2O)C(O)C(O)C1O` (configuration not stated) [CELLOBIOSE], the LC retention time in series [1] is 10.9 min.

Consider `C[N+](C)(C)CCO` [CHOLINE], for which, in series [1], the LC retention time is 7.51 min.

Turning to `C[N+](C)(C)CCOP(=O)(O)OP(=O)([O-])OCC1OC(n2ccc(N)nc2=O)C(O)C1O` (configuration not stated) [CITICOLINE], the LC retention time in series [1] is 13.4 min; in series [2], 8.89 min.

On to `NC(=O)NCCCC(N)C(=O)O` (configuration not stated) [CITRULLINE], for which the LC retention time in series [1] was 11.3 min; in series [2] it was 9.31 min.

As to `CN(CC(=O)O)C(=N)N` [CREATINE], the figures for the LC retention time in series [1] and in series [2] were 9.87 min and 8.59 min, respectively.

With `CN1CC(=O)NC1=N` [CREATININE], the LC retention time in series [1] was 4.34 min; in series [2], 5.92 min.

With `NC(CS(=O)(=O)O)C(=O)O` (configuration not stated) [CYSTEATE], the LC retention time is 10.8 min in series [1] and 8.92 min in series [2].

With `Nc1ccnc(=O)[nH]1` [CYTOSINE], the LC retention time in series [1] was 5.15 min.

Turning to `O=CC(O)C1OC(=O)C(O)C1O` [D-GLUCURONOLACTONE], the LC retention time is 1.86 min in series [1] and 6.28 min in series [2].

Take `NCCC[C@@H](N)C(=O)O` [D-ORNITHINE]: in series [1], the LC retention time was 14.4 min.

With `C[N+](C)(C)CCCC(=O)[O-]` [DEOXYCARNITINE], the LC retention time in series [1] was 10.8 min.

As for `OCCNCCO` [DIETHANOLAMINE], the LC retention time in series [1] is 8.78 min.

For `O=C1CC(C(=O)[O-])NC(=O)N1` (configuration not stated) [DIHYDROOROTATE], the results for the LC retention time in series [1] and in series [2] were 7.2 min and 7.81 min, respectively.

`O=C1CCNC(=O)N1` [DIHYDROURACIL]: the LC retention time in series [1] is 1.45 min.

Turning to `CCCCCCCCCCCCCCCC(=O)OCC(COP(=O)(O)OCCN)OC(=O)CCCCCCCCCCCCCCC` (configuration not stated) [DIPALMITOYL-PHOSPHOETHANOLAMINE], the LC retention time in series [1] is 4.45 min.

Turning to `OCC(O)C(O)CO` (configuration not stated) [ERYTHRITOL], the LC retention time in series [1] is 3.99 min.

As for `NCCCC(=O)O` [GAMMA-AMINOBUTYRATE], in series [1], the LC retention time is 10.2 min.

For `NC1C(O)OC(COS(=O)(=O)O)C(O)C1O` (configuration not stated) [GLUCOSAMINE 6-SULFATE], the LC retention time was 10.6 min in series [1] and 10.5 min in series [2].

In the case of `NC1C(O)OC(CO)C(O)C1O` (configuration not stated) [GLUCOSAMINE], in series [1], the LC retention time was 11.3 min.

Consider `NC(=O)CCC(N)C(=O)O` (configuration not stated) [GLUTAMINE], for which the LC retention time was 11 min in series [1] and 9.03 min in series [2].

Take `COc1ccccc1O` [GUAIACOL]: the LC retention time in series [1] is 0.89 min.

For the molecule `NC(N)=NCC(=O)O` [GUANIDINOACETATE], the LC retention time was 10.2 min in series [1] and 9.05 min in series [2].

Regarding `NC(N)=NC(CC(=O)O)C(=O)O` (configuration not stated) [GUANIDINOSUCCINATE], the LC retention time is 10.3 min in series [1] and 9 min in series [2].

`CCCCCC(=O)[O-]` [HEXANOATE]: the LC retention time in series [1] was 0.91 min.

Take `NCCc1cnc[nH]1` [HISTAMINE]: the LC retention time in series [1] was 9.43 min.

Turning to `NC(CO)Cc1cnc[nH]1` (configuration not stated) [HISTIDINOL], the LC retention time in series [1] was 9.82 min.

On to `NC1CCSC1=O` (configuration not stated) [HOMOCYSTEINE THIOLACTONE], for which, in series [1], the LC retention time is 1.05 min.

Take `NC(CCO)C(=O)O` (configuration not stated) [HOMOSERINE]: the LC retention time in series [1] was 10.5 min; in series [2] it was 8.91 min.

`CC(C)C(=O)O` [ISOBUTYRATE]: in series [1], the LC retention time is 8.79 min.

Turning to `CC(C)CC(=O)C(=O)O` [KETOLEUCINE], the LC retention time in series [1] was 1.86 min.

`C[C@H](N)C(=O)O` [L-ALANINE]: the LC retention time in series [1] was 9.76 min.

As to `O=C1OC(C(O)CO)C(O)C1O` [L-GULONOLACTONE], the LC retention time in series [1] was 3.12 min; in series [2] it was 7.2 min.

As for `CCCCCCCCCCCC(=O)OC(CC(=O)[O-])C[N+](C)(C)C` (configuration not stated) [LAUROYLCARNITINE], the LC retention time in series [1] was 6.24 min.

As for `NC(=O)C=CC(=O)O` [MALEAMATE], the LC retention time in series [1] is 2.1 min.

Consider `OCC1OC(OCC2OC(O)C(O)C(O)C2O)C(O)C(O)C1O` (configuration not stated) [MELIBIOSE], for which the LC retention time in series [1] was 11.8 min; in series [2] it was 9.37 min.

As for `COC(=O)CC(C)=O` [METHYL ACETOACETATE], in series [1], the LC retention time is 1.63 min.

Turning to `CN=C(N)N` [METHYLGUANIDINE], the LC retention time in series [1] is 8 min.

On to `COC(=O)CCCC(=O)O` [MONOMETHYLGLUTARATE], for which the LC retention time in series [1] was 2.48 min.

With `C[N+](C)(C)CCCCC(N)C(=O)O` (configuration not stated) [N,N,N-TRIMETHYLLYSINE], in series [1], the LC retention time was 0.83 min.

Turning to `CN(C)c1ccc(N)cc1` [N,N-DIMETHYL-1,4-PHENYLENEDIAMINE], the LC retention time in series [1] was 0.91 min.

With `CN(C)C(N)=NCCCC(N)C(=O)O` (configuration not stated) [N,N-DIMETHYLARGININE], in series [1], the LC retention time was 13 min.

Consider `CC(=O)NCCCCN` [N-ACETYLPUTRESCINE], for which the LC retention time in series [1] is 8.45 min.

With `CNCCc1c[nH]c2ccccc12` [N-METHYLTRYPTAMINE], the LC retention time in series [1] was 6.64 min.

In the case of `NC(=O)c1cccnc1` [NICOTINAMIDE], the LC retention time in series [1] was 1.38 min.

On to `CN1CCCC1c1cccnc1` (configuration not stated) [NICOTINE], for which, in series [1], the LC retention time was 2.9 min.

Consider `NCCCNCCCN` [NORSPERMIDINE], for which, in series [1], the LC retention time is 8.25 min.

Take `CCCCCCCCCCCCCCCC(=O)OC(CC(=O)[O-])C[N+](C)(C)C` (configuration not stated) [PALMITOYLCARNITINE]: in series [1], the LC retention time was 5.9 min.

On to `CCCCC(=O)[O-]` [PENTANOATE], for which the LC retention time in series [1] is 8.25 min.

As to `NCCc1ccccc1` [PHENETHYLAMINE], in series [1], the LC retention time is 7 min.

As to `NCC(O)c1ccccc1` (configuration not stated) [PHENYLETHANOLAMINE], the LC retention time in series [1] is 7.74 min.

As for `NCCCCN` [PUTRESCINE], the LC retention time in series [1] is 0.94 min.

As for `c1ccc2ncccc2c1` [QUINOLINE], the LC retention time in series [1] was 0.91 min.

Take `CNCC(=O)O` [SARCOSINE]: the LC retention time in series [1] is 9.54 min.

With `CCCCCCCCCCCCCCCC(O)C(N)CO` (configuration not stated) [SPHINGANINE], the LC retention time in series [1] was 5.14 min.

As for `CCCCCCCCCCCCCC=CC(O)C(COP(=O)([O-])OCC[N+](C)(C)C)NC(=O)CCCCCCCCCCCCCCCCC` (configuration not stated) [SPHINGOMYELIN], the LC retention time in series [1] is 5.7 min.

Take `NC(N)=S` [THIOUREA]: the LC retention time in series [1] was 1.17 min.

For `CC(O)C(N)C(=O)O` (configuration not stated) [THREONINE], the LC retention time in series [1] is 10.5 min.

Consider `C[n+]1cccc(C(=O)[O-])c1` [TRIGONELLINE], for which the LC retention time in series [1] was 7.85 min.

Consider `NCCc1ccc(O)cc1` [TYRAMINE], for which the LC retention time in series [1] is 7.72 min.
